Laboratory results from US5981181A, “DNA sequences with oligosaccharide transporter, plasmids bacteria and plants containing a transporter as well as a process for the preparation and transformation of yeast strains for identification of the transporter” (Hoechst Schering AgrEvo GmbH, priority 1992, dated 1999).

Legend:
[1] = target: T1, sucrose transporter from spinach (Spinacia oleracea, UniProt Q03411); assay: cell-based
T1 construct: which contain, as inserts, the cDNA for the sucrose transporter from spinach; expressed in transfected cells; host or cells: Saccharomyces cerevisiae YSH2.64-1A suc- with integrated potato sucrose synthase (susy), transformed with YEplac112A1NE-S21
T1 sequence (Q03411 1-525): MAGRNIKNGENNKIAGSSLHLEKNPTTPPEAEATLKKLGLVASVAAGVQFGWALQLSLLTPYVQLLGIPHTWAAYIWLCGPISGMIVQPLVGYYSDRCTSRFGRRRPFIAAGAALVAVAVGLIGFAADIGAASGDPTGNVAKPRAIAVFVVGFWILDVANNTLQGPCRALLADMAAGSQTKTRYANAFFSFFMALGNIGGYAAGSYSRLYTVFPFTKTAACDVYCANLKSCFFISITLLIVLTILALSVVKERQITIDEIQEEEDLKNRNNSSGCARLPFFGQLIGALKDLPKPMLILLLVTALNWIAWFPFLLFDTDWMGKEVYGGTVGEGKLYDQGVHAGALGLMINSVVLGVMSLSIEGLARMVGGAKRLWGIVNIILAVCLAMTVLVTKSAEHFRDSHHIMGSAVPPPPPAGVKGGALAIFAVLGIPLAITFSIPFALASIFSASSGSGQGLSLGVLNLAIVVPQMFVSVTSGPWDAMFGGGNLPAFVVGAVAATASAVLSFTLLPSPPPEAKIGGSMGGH
Description: Time pattern of the uptake of sucrose in yeast cells. "pmol/mg cells"=amount of the ^14 C-labelled sucrose in pmol taken up in relation to the moisture weight of the yeast cells per mg; "112"=starting strain (without transporter); "+Glucose"=pre-incubation of the cells in a medium of 10 mM glucose; "-Glucose"=no pre-incubation of the cells; […], carbonyl cyanide m-chlorophenylhydrazone (CCCP) in a concentration of 2.5 μM; […] p-chloromercuribenzenesulfonicacid (PCMBS) in a concentration of 500 μM; […] antimycin in a concentration of 10 μM.
After centrifuging the culture, the cells were subjected to a pre-incubation for 5 minutes in a glucose containing medium and then taken up in a medium containing ^14 C-labelled sucrose. The uptake of the labelled sucrose was measured by the process described by Cirillo (1989, Meth Enzymol 174: 617-622). The uptake of the labelled sucrose without preincubation with glucose was compared with that with co-incubation with the inhibitors carbonyl cyanide m-chlorophenylhydrazone(CCCP), p-chloromercuribenzenesulfonic acid (PCMBS) and antimycin.

[2] = target: T1, sucrose transporter from spinach; assay: Competition experiment with various sugars as competitor for the labelled sucrose in yeast YEplac112A1NE-S21; format: cell-based; settings: in relation to YEplac112A1NE-S21 control = 100; for activity at 2000 µM: 2mM competitor; for activity at 2000 µM / activity at 10000 µM: read-out: sucrose transport (%)
Description: The yeast transformand YEplac112A1NE-S21, corresponding to that obtained in Example 2, was grown in liquid medium until the culture had reached the logarithmic phase. After centrifuging the culture, the cells were subjected to a pre-incubation for 5 minutes in a glucose containing medium and then taken up in a medium containing ^14 C-labelled sucrose. The uptake of the labelled sucrose was measured by the process described by Cirillo (1989, Meth Enzymol 174: 617-622). The uptake of the labelled sucrose without preincubation with glucose was compared with that with co-incubation with the inhibitors carbonyl cyanide m-chlorophenylhydrazone(CCCP), p-chloromercuribenzenesulfonic acid (PCMBS) and antimycin. The calculated reduction of the sucrose uptake by the inhibitors is shown in table I. A competition experiment with various sugars as competitor for the labelled sucrose, from which the specificity of the transporter can be read off, is shown in table II.

[3] = tested on: sucrose transport through the membrane; settings: plasma membranes; Slone & Buckhout, 1991; cited from earlier work
[4] = read-out: sucrose transport (%)

Compound: O=[N+]([O-])c1ccc(O)c([N+](=O)[O-])c1 [2,4-DNP, 2,4dinitrophenol]
- activity at 25 µM [1, 4]: 61%
- activity at 100 µM [1, 4]: 9%

Compound: N#CC(C#N)=NNc1cccc(Cl)c1 [CCCP, carbonyl cyanide m-chlorophenylhydrazone]
- activity at 0.5 µM ([1]; 0.5μM inhibitor, in relation to YEplac112A1NE-S21 control = 100, read-out: sucrose transport (%)): 65%
- activity at 2.5 µM ([1]; 2.5μM inhibitor, in relation to YEplac112A1NE-S21 control = 100, read-out: sucrose transport (%)): 21%

Compound: O=S(=O)(O)c1cc[c]([Hg][Cl])cc1 [PCMBS, p-chloromercuribenzenesulfonic acid]
- sucrose transport (%) ([1]; 25μM inhibitor, in relation to YEplac112A1NE-S21 control = 100): 73%
- sucrose transport (%) ([1]; 100μM inhibitor, in relation to YEplac112A1NE-S21 control = 100): 21%

Compound: OC[C@H]1O[C@@H](O[C@H]2[C@H](O)[C@@H](O)C(O)O[C@@H]2CO)[C@H](O)[C@@H](O)[C@H]1O (some centres unmarked) [lactose]
- activity at 2000 µM [2]: 91%

Compound: OC[C@H]1O[C@H](O[C@H]2[C@H](O)[C@@H](O)[C@H](O)O[C@@H]2CO)[C@H](O)[C@@H](O)[C@@H]1O [maltose]
- activity at 2000 µM [2]: 58%
- activity at 10000 µM ([2]; 10mM competitor): 37%

Compound: OC[C@H]1O[C@H](OC[C@H]2OC(O)(CO)[C@@H](O)[C@@H]2O)[C@H](O)[C@@H](O)[C@@H]1O (some centres unmarked) [palatinose]
- sucrose transport (%) ([2]; 10mM competitor): 102%

Compound: OC[C@H]1OC(Oc2ccccc2)[C@H](O)[C@@H](O)[C@@H]1O (some centres unmarked) [phenylglucoside]
- activity at 2000 µM [2]: 7%

Compound: O=C(CCc1ccc(O)cc1)c1c(O)cc(O)cc1O[C@@H]1O[C@H](CO)[C@@H](O)[C@H](O)[C@H]1O [phloridzin]
- activity at 2000 µM [2]: 16%

Compound: O=[As]([O-])([O-])O.[Na+].[Na+] [sodium arsenate]
- sucrose transport (%) ([1]; 1mM inhibitor, in relation to YEplac112A1NE-S21 control = 100): 34%

Compound: OC[C@H]1O[C@@](CO)(O[C@H]2O[C@H](CO)[C@@H](O)[C@H](O)[C@H]2O)[C@@H](O)[C@@H]1O [sucrose]
- activity at 2000 µM [2]: 28%
- Km [3]: ~1000 µM

Compound: OC[C@H]1O[C@H](O[C@H]2O[C@H](CO)[C@@H](O)[C@H](O)[C@H]2O)[C@H](O)[C@@H](O)[C@@H]1O [trehalose]
- activity at 10000 µM ([2]; 10mM competitor): 103%

Compound: antimycin A
- sucrose transport (%) ([1]; 10μM inhibitor, in relation to YEplac112A1NE-S21 control = 100): 59%
